Usually AC50 stands for the concentration giving half of the maximal activity seen. A high value points to weaker potency.

The values that follow come from ChEMBL document CHEMBL5291721, “A preclinical secondary pharmacology resource illuminates target-adverse drug reaction associations of marketed drugs” (Nat Commun, 2023).

Test [1] has as its target T1, 5-hydroxytryptamine receptor 3A (Homo sapiens, UniProt P46098).
T1 sequence (P46098 whole entry): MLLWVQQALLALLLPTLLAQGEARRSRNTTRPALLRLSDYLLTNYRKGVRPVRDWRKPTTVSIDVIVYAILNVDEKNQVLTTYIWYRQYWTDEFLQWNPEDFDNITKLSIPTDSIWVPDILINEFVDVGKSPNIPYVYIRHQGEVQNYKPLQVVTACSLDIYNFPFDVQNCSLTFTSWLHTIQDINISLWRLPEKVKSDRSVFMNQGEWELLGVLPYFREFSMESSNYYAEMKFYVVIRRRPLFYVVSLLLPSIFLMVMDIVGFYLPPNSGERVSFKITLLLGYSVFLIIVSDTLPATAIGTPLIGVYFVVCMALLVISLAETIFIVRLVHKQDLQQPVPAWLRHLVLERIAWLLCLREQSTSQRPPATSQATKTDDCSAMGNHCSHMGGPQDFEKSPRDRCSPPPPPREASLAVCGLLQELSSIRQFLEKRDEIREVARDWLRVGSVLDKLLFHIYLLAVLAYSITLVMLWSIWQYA
The class given is functional.

Test [2] concerns the target Growth hormone secretagogue receptor type 1 (Homo sapiens, UniProt Q92847).
The target in test [3] is T2, 5-hydroxytryptamine receptor 2C (Homo sapiens, UniProt P28335).
T2 sequence (P28335 whole entry): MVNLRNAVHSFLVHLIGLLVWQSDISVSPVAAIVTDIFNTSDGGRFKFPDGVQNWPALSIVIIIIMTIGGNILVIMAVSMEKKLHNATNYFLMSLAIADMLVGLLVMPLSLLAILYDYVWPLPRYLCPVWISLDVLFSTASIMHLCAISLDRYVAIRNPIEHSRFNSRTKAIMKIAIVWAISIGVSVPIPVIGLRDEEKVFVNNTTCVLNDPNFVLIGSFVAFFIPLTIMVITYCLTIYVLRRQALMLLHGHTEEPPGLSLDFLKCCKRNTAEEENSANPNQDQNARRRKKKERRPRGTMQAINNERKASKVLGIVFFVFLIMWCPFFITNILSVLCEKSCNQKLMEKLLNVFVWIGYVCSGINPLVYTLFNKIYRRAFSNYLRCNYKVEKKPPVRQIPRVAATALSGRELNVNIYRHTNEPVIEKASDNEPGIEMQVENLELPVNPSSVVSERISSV

In test [4] the target is Delta-type opioid receptor (Homo sapiens, UniProt P41143).
Chain of Delta-type opioid receptor (P41143 whole entry): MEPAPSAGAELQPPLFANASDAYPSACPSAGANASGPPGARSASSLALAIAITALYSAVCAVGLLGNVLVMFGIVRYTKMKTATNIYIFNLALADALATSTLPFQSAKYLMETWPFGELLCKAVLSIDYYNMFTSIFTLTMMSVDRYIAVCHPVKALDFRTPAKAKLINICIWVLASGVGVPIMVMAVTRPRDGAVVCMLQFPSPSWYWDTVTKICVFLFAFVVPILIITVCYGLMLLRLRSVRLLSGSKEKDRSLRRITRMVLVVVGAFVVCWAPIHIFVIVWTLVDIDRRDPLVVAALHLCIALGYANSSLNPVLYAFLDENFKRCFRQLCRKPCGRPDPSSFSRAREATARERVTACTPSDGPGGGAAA
The target of test [5] is T3, Alpha-2C adrenergic receptor (Homo sapiens, UniProt P18825).
T3 sequence (P18825 whole entry): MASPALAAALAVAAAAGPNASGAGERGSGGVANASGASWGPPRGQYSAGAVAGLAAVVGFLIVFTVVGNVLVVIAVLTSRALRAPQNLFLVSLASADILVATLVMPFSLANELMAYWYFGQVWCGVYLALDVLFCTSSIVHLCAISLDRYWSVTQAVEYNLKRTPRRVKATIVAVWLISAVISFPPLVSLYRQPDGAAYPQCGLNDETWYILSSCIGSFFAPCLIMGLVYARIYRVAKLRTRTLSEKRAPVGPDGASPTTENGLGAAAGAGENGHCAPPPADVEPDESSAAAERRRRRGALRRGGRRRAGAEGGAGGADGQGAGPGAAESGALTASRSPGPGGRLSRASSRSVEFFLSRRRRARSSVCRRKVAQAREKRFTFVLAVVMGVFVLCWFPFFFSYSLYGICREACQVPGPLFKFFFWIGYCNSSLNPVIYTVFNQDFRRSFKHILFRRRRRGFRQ
The class given is functional.

Test [6] concerns the target 5-hydroxytryptamine receptor 2B (Homo sapiens, UniProt P41595). The class given is functional, cell-based.
Test [7] has as its target 3',5'-cyclic-AMP phosphodiesterase 4D (Homo sapiens, UniProt Q08499). The class given is functional.
In test [8] the target is T4, Prostaglandin G/H synthase 1 (Rattus norvegicus, UniProt Q63921).
T4 sequence (Q63921 whole entry): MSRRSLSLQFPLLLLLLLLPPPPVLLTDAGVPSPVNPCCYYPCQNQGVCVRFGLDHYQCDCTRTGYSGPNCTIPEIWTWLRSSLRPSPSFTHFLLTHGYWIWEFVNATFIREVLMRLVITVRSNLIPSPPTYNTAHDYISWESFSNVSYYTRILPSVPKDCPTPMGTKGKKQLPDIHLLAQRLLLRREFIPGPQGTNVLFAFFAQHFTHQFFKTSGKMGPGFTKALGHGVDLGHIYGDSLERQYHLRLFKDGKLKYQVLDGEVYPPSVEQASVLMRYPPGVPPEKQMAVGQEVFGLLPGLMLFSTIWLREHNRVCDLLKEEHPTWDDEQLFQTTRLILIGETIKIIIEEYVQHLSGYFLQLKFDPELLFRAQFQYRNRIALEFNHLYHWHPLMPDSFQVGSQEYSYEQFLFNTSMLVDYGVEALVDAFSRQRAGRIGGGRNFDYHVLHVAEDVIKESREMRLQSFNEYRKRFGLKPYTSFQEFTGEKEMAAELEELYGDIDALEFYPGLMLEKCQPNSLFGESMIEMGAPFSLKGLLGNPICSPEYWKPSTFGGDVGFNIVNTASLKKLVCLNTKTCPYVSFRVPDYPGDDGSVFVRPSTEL
The class given is functional.

In test [9] the target is T5, Amine oxidase [flavin-containing] A (Homo sapiens, UniProt P21397).
T5 sequence (P21397 whole entry): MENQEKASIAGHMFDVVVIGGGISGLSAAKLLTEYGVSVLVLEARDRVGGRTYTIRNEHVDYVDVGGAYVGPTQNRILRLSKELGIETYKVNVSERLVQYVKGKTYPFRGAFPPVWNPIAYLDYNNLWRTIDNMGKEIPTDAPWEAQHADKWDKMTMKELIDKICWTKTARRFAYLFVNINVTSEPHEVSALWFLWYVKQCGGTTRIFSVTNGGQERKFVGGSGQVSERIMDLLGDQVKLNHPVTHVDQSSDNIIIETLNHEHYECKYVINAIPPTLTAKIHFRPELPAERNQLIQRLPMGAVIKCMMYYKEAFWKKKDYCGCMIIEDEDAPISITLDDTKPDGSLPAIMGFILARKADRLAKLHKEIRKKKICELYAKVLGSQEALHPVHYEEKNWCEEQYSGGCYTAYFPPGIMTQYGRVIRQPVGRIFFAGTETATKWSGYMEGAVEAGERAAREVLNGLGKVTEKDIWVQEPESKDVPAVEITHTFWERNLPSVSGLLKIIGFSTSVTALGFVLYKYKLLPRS
The format is functional.

Test [10] has as its target Gamma-aminobutyric acid receptor subunit alpha-1 (Rattus norvegicus, UniProt P62813). The format is functional.
Further: assay procedure not described here.

Chain of 3',5'-cyclic-AMP phosphodiesterase 4D (Q08499 whole entry): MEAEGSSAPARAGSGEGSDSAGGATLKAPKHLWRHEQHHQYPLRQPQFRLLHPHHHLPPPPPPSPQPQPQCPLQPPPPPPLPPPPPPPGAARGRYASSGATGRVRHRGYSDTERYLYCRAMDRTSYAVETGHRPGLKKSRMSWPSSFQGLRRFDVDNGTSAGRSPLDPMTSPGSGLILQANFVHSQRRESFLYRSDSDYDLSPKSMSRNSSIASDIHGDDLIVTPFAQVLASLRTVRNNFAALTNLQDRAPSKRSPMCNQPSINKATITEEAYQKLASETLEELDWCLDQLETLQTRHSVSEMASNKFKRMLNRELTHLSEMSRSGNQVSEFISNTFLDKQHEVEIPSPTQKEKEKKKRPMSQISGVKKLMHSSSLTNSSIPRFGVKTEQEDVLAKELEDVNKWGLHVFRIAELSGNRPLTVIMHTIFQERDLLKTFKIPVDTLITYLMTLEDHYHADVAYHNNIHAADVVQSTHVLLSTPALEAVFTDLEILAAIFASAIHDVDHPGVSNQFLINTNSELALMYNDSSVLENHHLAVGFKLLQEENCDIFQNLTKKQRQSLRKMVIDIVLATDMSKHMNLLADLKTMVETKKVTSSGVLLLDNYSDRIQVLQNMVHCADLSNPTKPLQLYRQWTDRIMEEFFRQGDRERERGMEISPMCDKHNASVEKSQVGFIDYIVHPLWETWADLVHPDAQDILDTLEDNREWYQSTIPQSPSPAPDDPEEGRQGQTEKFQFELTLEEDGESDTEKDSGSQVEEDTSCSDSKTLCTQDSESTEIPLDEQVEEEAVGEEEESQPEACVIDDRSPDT
Chain of Gamma-aminobutyric acid receptor subunit alpha-1 (P62813 whole entry): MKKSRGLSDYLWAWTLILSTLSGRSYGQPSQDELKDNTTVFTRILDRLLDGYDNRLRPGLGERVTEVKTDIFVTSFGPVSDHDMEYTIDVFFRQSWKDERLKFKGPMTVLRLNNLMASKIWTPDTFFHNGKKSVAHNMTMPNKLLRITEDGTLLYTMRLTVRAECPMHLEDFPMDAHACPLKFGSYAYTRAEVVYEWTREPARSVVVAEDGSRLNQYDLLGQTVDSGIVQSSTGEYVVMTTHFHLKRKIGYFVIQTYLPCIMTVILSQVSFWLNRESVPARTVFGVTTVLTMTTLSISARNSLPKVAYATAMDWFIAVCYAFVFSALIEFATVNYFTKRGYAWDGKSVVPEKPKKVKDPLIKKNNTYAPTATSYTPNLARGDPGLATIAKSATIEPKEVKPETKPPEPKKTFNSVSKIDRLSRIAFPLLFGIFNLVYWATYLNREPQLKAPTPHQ
Chain of Growth hormone secretagogue receptor type 1 (Q92847 whole entry): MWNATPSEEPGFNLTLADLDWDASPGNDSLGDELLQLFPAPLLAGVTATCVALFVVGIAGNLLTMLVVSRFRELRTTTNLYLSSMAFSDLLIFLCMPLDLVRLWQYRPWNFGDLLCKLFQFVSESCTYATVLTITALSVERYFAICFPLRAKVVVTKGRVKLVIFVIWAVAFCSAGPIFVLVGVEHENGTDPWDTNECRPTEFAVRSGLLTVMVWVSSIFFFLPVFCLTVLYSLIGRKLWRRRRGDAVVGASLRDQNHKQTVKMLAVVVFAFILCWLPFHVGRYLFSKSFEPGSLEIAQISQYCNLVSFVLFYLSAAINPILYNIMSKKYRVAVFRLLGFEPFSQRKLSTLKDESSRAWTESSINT
Chain of 5-hydroxytryptamine receptor 2B (P41595 whole entry): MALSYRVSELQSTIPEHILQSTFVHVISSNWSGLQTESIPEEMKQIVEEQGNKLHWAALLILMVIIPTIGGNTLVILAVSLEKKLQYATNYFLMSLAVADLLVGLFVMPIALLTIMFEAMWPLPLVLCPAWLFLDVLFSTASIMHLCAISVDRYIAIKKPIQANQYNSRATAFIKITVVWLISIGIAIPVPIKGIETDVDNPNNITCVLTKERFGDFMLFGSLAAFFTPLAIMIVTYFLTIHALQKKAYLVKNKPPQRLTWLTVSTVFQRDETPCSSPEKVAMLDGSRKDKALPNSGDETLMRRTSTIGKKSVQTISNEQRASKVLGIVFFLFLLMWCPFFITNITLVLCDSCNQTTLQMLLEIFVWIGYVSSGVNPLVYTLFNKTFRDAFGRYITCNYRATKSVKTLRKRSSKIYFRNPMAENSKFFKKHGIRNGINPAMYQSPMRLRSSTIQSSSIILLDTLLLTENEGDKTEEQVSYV

Consider `CCN(CC)CCn1c(=O)c(Cc2ccc(OC)cc2)nc2ccccc21` [CAROVERINE], for which the AC50 in [1] was 29 µM; in [2] it was 6.47 µM; in test [3], 27 µM; in test [4] it was 26 µM; in [5], 21.5 µM; in [6], greater than 30 µM. In addition, the AC50 was 7.11 µM in test [7], 15.8 µM in [8], greater than 30 µM in [9] and 19 µM in [10].

Consider `C[C@H](CCC(=O)O)[C@H]1CC[C@H]2[C@@H]3[C@H](O)C[C@@H]4C[C@H](O)CC[C@]4(C)[C@H]3CC[C@]12C` [CHENODIOL], for which the AC50 in test [1], in [2], in test [3], in test [4], in [5] and in [6] was greater than 30 µM throughout. The AC50 in test [7], in test [8], in [9] and in test [10] was greater than 30 µM each time.

With `O=C(O)[C@H]1/C(=C/CO)O[C@@H]2CC(=O)N21` [CLAVULANIC ACID], the concentration at half-maximal activity (AC50) in test [1], in [2], in test [3], in test [4], in [5] and in test [6] was greater than 30 µM throughout. The AC50 in test [7], in test [8], in [9] and in [10] was greater than 30 µM each time.

As to `CC(C)/N=c1\cc2n(-c3ccc(Cl)cc3)c3ccccc3nc-2cc1Nc1ccc(Cl)cc1` [CLOFAZIMINE], the AC50 in test [1] is greater than 30 µM; in test [2], 0.92 µM; in test [3], greater than 30 µM; in [4] it was 26 µM; in test [5], 13 µM; in [6], greater than 30 µM. The AC50 in test [7] is 17.5 µM; in [8], greater than 30 µM; in test [9], greater than 30 µM; in [10], 20 µM.

Regarding `C[C@H](Nc1ncnc2[nH]cnc12)c1cc2cccc(Cl)c2c(=O)n1-c1ccccc1` [DUVELISIB], the concentration at half-maximal activity (AC50) in test [1], in [2], in test [3], in test [4], in [5] and in [6] was greater than 30 µM each time. Moreover, the concentration at half-maximal activity (AC50) in test [7], in [8], in [9] and in [10] was greater than 30 µM each time.

For `COC(=O)CCc1ccc(OCC(O)CNC(C)C)cc1` (stereo not given) [ESMOLOL], the concentration at half-maximal activity (AC50) in [1], in test [2], in [3], in test [4], in test [5] and in test [6] was greater than 30 µM throughout. In addition, the AC50 in test [7], in [8], in test [9] and in test [10] was greater than 30 µM each time.

On to `C[C@]12CCC(=O)C=C1CC[C@H]1[C@@H]3CC[C@](O)(C(=O)CO)[C@@]3(C)C[C@H](O)[C@@]12F` [FLUDROCORTISONE], for which the concentration at half-maximal activity (AC50) in test [1] is greater than 30 µM; in test [2] it was greater than 30 µM; in test [3], greater than 30 µM; in [4], greater than 30 µM; in test [5], greater than 10 µM; in test [6], greater than 10 µM. The AC50 in test [7] is greater than 30 µM; in [8], greater than 30 µM; in test [9], greater than 10 µM; in test [10], greater than 10 µM.

For the compound `NCC1(CC(=O)O)CCCCC1` [GABAPENTIN], the AC50 in test [1], in test [2], in test [3], in test [4], in [5] and in test [6] was greater than 30 µM throughout. Besides, the AC50 in test [7], in test [8], in [9] and in test [10] was greater than 30 µM throughout.

Regarding `OCCOCCN1CCN(C(c2ccccc2)c2ccc(Cl)cc2)CC1` (stereo not given) [HYDROXYZINE], the AC50 is greater than 30 µM in test [1]; greater than 30 µM in test [2]; greater than 30 µM in test [3]; greater than 30 µM in [4]; 2.3 µM in test [5]; 2.2 µM in test [6]. For the same compound, the AC50 in test [7] was greater than 30 µM; in test [8], greater than 30 µM; in [9], greater than 10 µM; in test [10], greater than 10 µM.

Regarding `O=C(c1ccccc1)c1ccc2n1CCC2C(=O)O` (stereo not given) [KETOROLAC], the half-maximal activity concentration (AC50) was greater than 30 µM in [1]; greater than 10 µM in test [2]; greater than 30 µM in [3]; greater than 30 µM in [4]; greater than 30 µM in test [5]; greater than 30 µM in test [6]. Besides, the AC50 was greater than 30 µM in test [7], 0.0239 µM in [8], greater than 30 µM in [9] and greater than 30 µM in test [10].

Consider `Nc1nnc(-c2cccc(Cl)c2Cl)c(N)n1` [LAMOTRIGINE], for which the AC50 in test [1] was greater than 30 µM; in test [2] it was greater than 30 µM; in test [3], greater than 30 µM; in test [4], greater than 30 µM; in [5], greater than 10 µM; in [6], greater than 10 µM. For the same compound, the AC50 in test [7] is greater than 30 µM; in test [8], greater than 30 µM; in test [9], 16 µM; in test [10], greater than 10 µM.

In the case of `N[C@@H](Cc1cc(I)c(Oc2cc(I)c(O)c(I)c2)c(I)c1)C(=O)O` [LEVOTHYROXINE], the half-maximal activity concentration (AC50) in test [1], in test [2], in test [3], in [4], in test [5] and in [6] was greater than 30 µM each time. For the same compound, the AC50 in test [7] is 1.8 µM; in [8] it was greater than 30 µM; in [9], greater than 30 µM; in test [10], greater than 30 µM.
